Laboratory results published in patent publication US9708331B2, “Metabotrophic glutamate receptor 5 modulators and methods of use thereof” (SUNOVION PHARMACEUTICALS INC., priority 2011, dated 2017).

How the values were obtained:
[1] = target: T1, mGluR5 (Homo sapiens, UniProt P41594); test: mGluR5 fold shift at a fixed compound concentration; type: cell-based
[2] = target: T1, mGluR5; test: mGluR5 PAM EC50 (positive allosteric modulator potency); type: cell-based

T1 sequence (P41594 21-1212): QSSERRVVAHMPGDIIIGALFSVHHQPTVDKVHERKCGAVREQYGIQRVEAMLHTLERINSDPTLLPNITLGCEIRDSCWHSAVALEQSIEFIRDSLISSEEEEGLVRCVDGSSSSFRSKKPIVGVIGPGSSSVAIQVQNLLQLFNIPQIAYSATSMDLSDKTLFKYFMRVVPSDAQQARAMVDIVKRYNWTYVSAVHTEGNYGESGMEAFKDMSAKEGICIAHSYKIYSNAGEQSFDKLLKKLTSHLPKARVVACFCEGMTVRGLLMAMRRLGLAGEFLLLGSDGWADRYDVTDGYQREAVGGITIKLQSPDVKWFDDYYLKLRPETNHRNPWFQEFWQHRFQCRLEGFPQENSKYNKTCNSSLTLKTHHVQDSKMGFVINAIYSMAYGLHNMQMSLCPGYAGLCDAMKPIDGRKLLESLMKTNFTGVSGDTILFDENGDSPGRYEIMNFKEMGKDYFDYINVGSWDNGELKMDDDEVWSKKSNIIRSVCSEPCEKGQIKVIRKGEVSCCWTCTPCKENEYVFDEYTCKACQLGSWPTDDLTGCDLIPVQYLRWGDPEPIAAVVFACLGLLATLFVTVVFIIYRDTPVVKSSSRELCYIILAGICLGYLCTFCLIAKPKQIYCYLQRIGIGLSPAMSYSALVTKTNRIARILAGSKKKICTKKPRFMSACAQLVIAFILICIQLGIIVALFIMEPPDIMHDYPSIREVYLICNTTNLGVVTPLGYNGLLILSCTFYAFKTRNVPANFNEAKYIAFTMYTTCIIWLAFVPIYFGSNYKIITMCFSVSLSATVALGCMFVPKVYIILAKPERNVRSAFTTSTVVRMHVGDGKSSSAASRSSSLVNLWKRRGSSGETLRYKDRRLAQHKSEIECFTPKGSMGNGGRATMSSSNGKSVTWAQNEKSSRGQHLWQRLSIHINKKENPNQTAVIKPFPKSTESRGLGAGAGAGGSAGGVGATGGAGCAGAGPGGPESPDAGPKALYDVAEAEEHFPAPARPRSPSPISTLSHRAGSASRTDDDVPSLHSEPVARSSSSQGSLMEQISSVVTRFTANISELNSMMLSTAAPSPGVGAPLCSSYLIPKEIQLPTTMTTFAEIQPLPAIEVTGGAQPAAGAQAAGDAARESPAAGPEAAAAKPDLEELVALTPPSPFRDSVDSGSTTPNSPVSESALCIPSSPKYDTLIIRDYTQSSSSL

SMILES | Fold shift at 1 μM [1] | EC50 [2] [nM] | Fold shift at 10 μM ([1]; at 10 μM)
Cc1cccc(C#Cc2ccc3c(=O)n4c(nc3c2)CCC(C)(C)C4)n1 [Example 2.41, 8,8-dimethyl-3-((6-methylpyridin-2-yl)ethynyl)-8,9-dihydro-6H-pyrido[2,1-b]quinazolin-11(7H)-one] | +++ (+++>3) | 10 to 30 | 
CC1(C)CCc2nc3cc(C#Cc4ccc(Cl)cn4)ccc3c(=O)n2C1 [Example 2.42, 3-((5-chloropyridin-2-yl)ethynyl)-8,8-dimethyl-8,9-dihydro-6H-pyrido[2,1-b]quinazolin-11(7H)-one] | +++ (+++>3) | < 10 | 
CC1(C)CCc2nc3cc(C#Cc4cccc(C#N)c4)ccc3c(=O)n2C1 [Example 2.45, 3-((8,8-dimethyl-11-oxo-7,8,9,11-tetrahydro-6H-pyrido[2,1-b]quinazolin-3-yl)ethynyl)benzonitrile] | ++ (++ is between 2.0 and 2.9) | 10 to 30 | 
Cc1ncc(C#Cc2ccc3c(=O)n4c(nc3c2)CCC(C)(C)C4)s1 [Example 2.49, 8,8-dimethyl-3-((2-methylthiazol-5-yl)ethynyl)-8,9-dihydro-6H-pyrido[2,1-b]quinazolin-11(7H)-one] | ++ (++ is between 2.0 and 2.9) | < 10 | 
CC1(CF)CCc2nc3cc(C#Cc4ccccn4)ccc3c(=O)n2C1 (centres unmarked) [Example 2.96, 8-(fluoromethyl)-8-methyl-3-(pyridin-2-ylethynyl)-8,9-dihydro-6H-pyrido[2,1-b]quinazolin-11(7H)-one] | +++ (+++>3) | < 10 | 
COCC1(C)CCc2nc3cc(C#Cc4ccccn4)ccc3c(=O)n2C1 (centres unmarked) [Example 2.97, 8-(methoxymethyl)-8-methyl-3-(pyridin-2-ylethynyl)-8,9-dihydro-6H-pyrido[2,1-b]quinazolin-11(7H)-one] | +++ (+++>3) | 10 to 30 | 
CC12Cc3nc4cc(C#Cc5ccccn5)ccc4c(=O)n3CC1C2 (centres unmarked) [Example 2.98, 1a-methyl-5-(pyridin-2-ylethynyl)-1a,2,10,10a-tetrahydrocyclopropa[4,5]pyrido [2,1-b]quinazolin-8(1H)-one] | +++ (+++>3) | < 10 | 
COc1cccc(C#Cc2ccc3c(=O)n4c(nc3c2)CCC(C)(C)C4)n1 [Example 2.101, 3-((6-methoxypyridin-2-yl)ethynyl)-8,8-dimethyl-8,9-dihydro-6H-pyrido[2,1-b]quinazolin-11(7H)-one] | ++ (++ is between 2.0 and 2.9) | 30 to 100 | 
O=c1c2ccc(C#Cc3ccccn3)cc2nc2n1CCC(F)(F)CC2 [Example 3.15, 8,8-difluoro-3-(pyridin-2-ylethynyl)-7,8,9,10-tetrahydroazepino[2,1-b]quinazolin-12(6H)-one] |  | 10 to 30 | +++ (+++>3)
CC1(C)CCn2c(nc3cc(C(=O)Nc4ccccn4)ccc3c2=O)C1 [Example 4.11, 7,7-dimethyl-11-oxo-N-(pyridin-2-yl)-7,8,9,11-tetrahydro-6H-pyrido[2,1-b]quinazoline-3-carboxamide] | + (+ is between 1.5 and 1.9) | 100 to 300 | 

Results, then the compound that gave them:

Fold shift at 1 μM [1] | EC50 [2] [nM] | Fold shift at 10 μM ([1]; at 10 μM) | SMILES
++ (++ is between 2.0 and 2.9) | < 10 |  | CC1(C)CCc2nc3cc(C#Cc4ccccc4)ccc3c(=O)n2C1 [Example 2.37, 8,8-dimethyl-3-(phenylethynyl)-8,9-dihydro-6H-pyrido[2,1-b]quinazolin-11(7H)-one]
++ (++ is between 2.0 and 2.9) | < 10 |  | CC1(C)CCc2nc3cc(C#Cc4ccc(F)cn4)ccc3c(=O)n2C1 [Example 2.43, 3-((5-fluoropyridin-2-yl)ethynyl)-8,8-dimethyl-8,9-dihydro-6H-pyrido[2,1-b]quinazolin-11(7H)-one]
+++ (+++>3) | < 10 |  | Cc1cccc(C#Cc2ccc3c(=O)n4c(nc3c2)CCC(C)(C)C4)c1 [Example 2.44, 8,8-dimethyl-3-(m-tolylethynyl)-8,9-dihydro-6H-pyrido[2,1-b]quinazolin-11(7H)-one]
+++ (+++>3) | 10 to 30 |  | O=c1c2ccc(C#Cc3ccccn3)cc2nc2n1CC1(CC2)COC1 [Example 2.58, 3′-(pyridin-2-ylethynyl)-6′,7′-dihydrospiro[oxetane-3,8′-pyrido[2,1-b]quinazolin]-11′(9′H)-one]
+++ (+++>3) | < 10 |  | O=c1c2ccc(C#Cc3ccccn3)cc2nc2n1CC1(CC2)CC1(F)F (centres unmarked) [Example 2.68, 2,2-difluoro-3′-(pyridin-2-ylethynyl)-6′,7′-dihydrospiro[cyclopropane-1,8′-pyrido[2,1-b]quinazolin]-11′(9′H)-one]
+++ (+++>3) | < 10 |  | CC12Cn3c(nc4cc(C#Cc5ccccn5)ccc4c3=O)CC1C2(F)F (centres unmarked) [Example 2.69, 1,1-difluoro-10a-methyl-5-(pyridin-2-ylethynyl)-1a,2,10,10a-tetrahydrocyclopropa[4,5]pyrido [2,1-b]quinazolin-8(1H)-one]
+ (+ is between 1.5 and 1.9) | 30 to 100 |  | COc1ccnc(C#Cc2ccc3c(=O)n4c(nc3c2)CCC(C)(C)C4)c1 [Example 2.102, 3-((4-methoxypyridin-2-yl)ethynyl)-8,8-dimethyl-8,9-dihydro-6H-pyrido[2,1-b]quinazolin-11(7H)-one]
++ (++ is between 2.0 and 2.9) | 30 to 100 |  | CC1(C)CCc2nc3cc(C#Cc4cccnn4)ccc3c(=O)n2C1 [Example 2.105, 8,8-dimethyl-3-(pyridazin-3-ylethynyl)-8,9-dihydro-6H-pyrido[2,1-b]quinazolin-11(7H)-one]
+++ (+++>3) | 10 to 30 |  | O=c1c2ccc(C#Cc3ccccn3)cc2nc2n1CC1(CCC2)CC1(F)F (centres unmarked) [Example 3.40, 2′,2′-difluoro-3-(pyridin-2-ylethynyl)-7,8-dihydro-6H-spiro[azepino[2,1-b]quinazoline-9,1′-cyclopropan]-12(10H)-one]
